Values joined by “and” are separate entries in the source; they are usually repeats but may differ in a detail not shown here. Equal values may be shown once. Read-outs that look alike come from different tables or passages of the source.
Assays:
[1] = PK of TPZ and metabolites SR4317 and SR4330 after intra-arterial injection of TPZ in NS vs HPβCD; assay type: in vivo, Sprague Dawley rats; details: for AUClast, HβC Mean / Cmax, HβC Mean / AUClast, Normal Saline (NS) Mean / Cmax, Normal Saline (NS) Mean: rats
From the text: Purpose of the study: To evaluate the pharmacokinetics (PK) of tirapazamine and its metabolites, SR4317 and SR4330 [Graham, M A et al. Cancer Chemother. Pharmacol. (1997) 40 (1): 1-10], after injection of TPZ in 1% HPβCD or normal saline.
Animals: Twenty-four female (12) and male (12) Sprague Daley (SD) rats, weight 200-250 grams, respectively, with femoral artery and jugular vein cannulated, were purchased from, Taconic. Two extra cannulated male and female rates were used to test tolerability with buffer. Each rate was housed individually to safeguard the vessel catheters.
The study parameters are shown in Table 22. began after a 3-day period of adjustment to the animal facility. The study compound was injected into the femoral artery catheter (FAC at 2-1 m (by slow injection. Blood samples were collected from a jugular vein catheter (JVC) at 6 timepoints: 0 (baseline) and after drug administration at 15 and 30 minutes, 1 hr, 2 hr, and 6 hours. The volume of blood sample for each time point was approximately 0.6 mL. Plasma samples were collected in tubes containing sodium heparin as anti-coagulant. Plasma was prepared and frozen in −80° C. Rats were euthanized after the last blood sample (euthanized after the 6 hr time point).
Male rats were around 250 grams, and female 200 grams. There were 8 groups with Groups 1-4 females, and […]. Each group had 3 rats. TPZ was dissolved in NS or […] at a concentration 0.7 mg/mL.
The concentrations of TPZ and its metabolites, SR4317 and SR4330, in rat plasma samples were analyzed using liquid chromatography Tandem Mass Spectrometry (LC-MS) by Primera Analytical Solutions Corp (Princeton, NJ). Standards for TPZ, SR4317 and SR4330 were provided by Teclison, Inc. (Princeton, NJ) for calibration. All analytical data were reviewed for completeness and accuracy. Data transferred manually was cross-checked against source data which was part of the study raw data.
LC-MS analysis was conducted with Sciex 4000 with a Shimadzu LC-30 System.
The concentration data was imported and plotted with SAS program as ADPC (Analysis Dataset of Pharmacokinetics Concentrations) dataset. PK parameters calculated based on ADPC were output as an Analysis Dataset of Pharmacokinetics Parameters (ADPP) dataset.
PK parameters of each profile were calculated by non-compartmental analysis using SAS programming. BLQ (Below the Limit of Quantification) observation prior to the first measurable concentration was imputed as zero, otherwise, the BLQ observation was left as missing.
An apparent first-order terminal elimination rate constant (Kel) was calculated by linear least-squares regression analysis using at least three points (excluding Cmax) in the terminal log-linear phase. Uniform weighting was adopted when performing regression analysis. Linear-up/log-down approach was utilized to calculate AUC.
A linear model was built to evaluate the effect of solution on the PK parameters, adjusting for sex and dose. The model included sex (F, M), solution type (Normal saline, Hydroxypropyl-beta-Cyclodextrin “HP-beta-CD”), and dose (mg) as fixed effects. Sex and solution type are categorical variables (meaning a variable based on a qualitative, not numerical, property) and dose is a continuous variable (meaning a random variable that can take on an infinite number of values within a certain interval that represents measurable data). Separate models were built for each combination of analyte (TPZ, SR4317 and SR4330) and PK parameters (AUClast and Cmax) using the BY statement, which divides the observations from an input data set into groups for processing.
The difference of lease squared means between solution types was estimated. 95% confidence intervals (CI), and p-values for the difference were presented. The significance level (alpha) was set at 0.05, meaning that a p-value less than 0.05 was considered statistically significant.

[2] = Activation energy of degradation from stability studies; assay type: physicochemical; details: formulation without HP-beta-CD, long-term stability results
Experimental: Activation energy (Ea) is the least possible energy required to start a chemical reaction. Molecules need some kinetic energy or velocity to collide with other molecules to start a reaction. No reaction will take place if the collision doesn't happen, or if the molecules don't have enough kinetic energy. The energy needed to initiate the reaction is known as Activation energy.
The activation energy (Ea) of a reaction is measured in joules (J), kilojoules per mole (kJ/mol) or kilocalories per mole (kcal/mol)
The Activation Energy Formula is as follows: […]
Where A is a constant, k is the rate constant, Ea is the activation energy of degradation in kcal/mol, R is the universal gast constant (1.98 calKmole) and I is the absolute temperature (° K).
In the formulation without HP-beta-CD, Ea of TPZ is calculated as 35 kcal/mole based on the long-term stability results. For the HP-beta-CD new formulation, Ea of the complex is calculated at 44 kcal/mole using a new formulation methodology called “Accelerated Stability Assessment Program (ASAP)” that can be executed in a few weeks with a few storage conditions and temperature ranging from 40° C. to 70° C. inclusive. The higher the activation energy, the more kinetically stable the complex is.

[3] = mice, intravenous administration; cited from earlier work
HCC [4] = details: cited from earlier work
HCC [5] = details: cited from earlier work; remark: listed apart in the source
[6] = test system: unresectable intermediate stage HCC; details: cited from earlier work
[7] = intra-arterial TPZ 3.33 mg/kg in HPβCD
[8] = intra-arterial TPZ 3.33 mg/kg in NS
[9] = intra-arterial TPZ 7 mg/kg in HPβCD
[10] = intra-arterial TPZ 7 mg/kg in NS

Nc1n[n+]([O-])c2ccccc2[n+]1[O-] [tirapazamine, 3-amino-1,2,4-benotriazine-1,4-di-N-oxide]
AUClast HβC/NS Ratio (%) ([1]; 3.33 mg/kg): 86.94% | Cmax HβC/NS Ratio (%) ([1]; 3.33 mg/kg): 91.15% | dose proportionality of plasma concentrations ([1]; 3.33 mg/kg vs. 7 mg/kg in either solvent): dose proportional effect was observed | AUClast HβC/NS Ratio (%) ([1]; 7 mg/kg): 94.02% | Cmax HβC/NS Ratio (%) ([1]; 7 mg/kg): 101.02% | plasma concentrations, TPZ in NS versus HPβCD ([1]; FIG. 23): no difference | AUClast, HβC Mean [1, 7]: 781.49 ng·h/mL | Cmax, HβC Mean [1, 7]: 1476.67 ng/mL | AUClast, Normal Saline (NS) Mean [1, 8]: 898.92 ng·h/mL | Cmax, Normal Saline (NS) Mean [1, 8]: 1620.00 ng/mL | AUClast, HβC Mean [1, 9]: 2423.84 ng·h/mL | Cmax, HβC Mean [1, 9]: 4468.33 ng/mL | AUClast, Normal Saline (NS) Mean [1, 10]: 2578.02 ng·h/mL | Cmax, Normal Saline (NS) Mean [1, 10]: 4423.33 ng/mL | activation energy of degradation (Ea) [2]: 35 kcal/mol | LD10 [3]: 294 mg/kg | LD50 [3]: 303 mg/kg | necrosis in the HCC within the territory of HAL (HCC [4]; Day 1 post-treatment, tirapazamine 3 mg/kg, doxorubicin 10 mg/kg, transient left HAL): more than 99% | necrosis of HCCs in the territory of the left HAL (HCC [4]; Day 7, 3 mg/kg with left HAL, H&E): 90-99% | tumor necrosis, individual mice (HCC [4]; Day 7, three mice, 3 mg/kg with left HAL, 3 mg/kg): 90% and 99% (2×) | necrosis in the tumor-free part of the left lobe of the liver (HCC [4]; Day 7, with left HAL): no evidence of necrosis | CR or partial response (PR), objective response rate (ORR) (HCC [5]; 17 patients): 64.7% | patients who achieved CR as the best target tumor lesion response (HCC [5]; 17 patients): 47.1% | median Time to Progression (HCC [5]; mRECIST criteria): not reached | median duration of target lesion response ([6]; 15 patients who achieved CR by mRECIST): not reached | median duration of target lesion response ([6]; 21 patients who achieved CR or PR): not reached | treatment emergent AE grade 3 or higher: ALT increased ([6]; 27 patients): 11.1% | treatment emergent AE grade 3 or higher: AST increased ([6]; 27 patients): 14.8% | treatment emergent AE grade 3 or higher: hypertension ([6]; 27 patients): 25.9% | treatment-related AE: ALT increased ([6]; 27 patients): 7.4% | treatment-related AE: AST increased ([6]; 27 patients): 7.4% | treatment-related AE: bradycardia ([6]; 27 patients): 7.4% | treatment-related AE: fatigue ([6]; 27 patients): 7.4% | treatment-related AE: hypertension ([6]; 27 patients): 11.1% | CR rate by lesions ([6]; 46 target lesions): 65.2% | ORR (CR+PR) by lesions ([6]; 46 target lesions): 78.3% | local recurrence in the embolized territory ([6]; CR patients): 13.3% | local recurrence in the embolized territory ([6]; CR+PR patients): 28.6% | dose-limiting toxicity (DLT) ([6]; all cohorts, with TAE): no dose-limiting toxicity | patients who achieved CR in target lesions ([6]; mRECIST, 25 evaluable patients): 60.0% | patients who achieved CR+PR ([6]; mRECIST, 25 evaluable patients): 84.0% | Complete Response (CR) rate ([6]; two phase I studies, tirapazamine with TAE): 50-60% | MTD of tirapazamine in combination with TAE ([6]; up to 20 mg/m^2 I.A.): not established
